Results on two compounds are retold here after ChEMBL document CHEMBL1148851, “Chemoenzymatic synthesis and in vitro studies on the hydrolysis of antimicrobial monoglycosyl diglycerides by pancreatic lipase” (2007).

In brackets after ≈: the same amount, converted by molar mass. Bounds are passed on as bounds.

The first test deals with Mycobacterium tuberculosis. Description: Antibacterial activity against Mycobacterium tuberculosis H190 by dilution method. The class given is functional.
Conditions: not given
On to `CCCCC/C=C\C/C=C\CCCCCCCC(=O)OC(COC(=O)CCCCCCC)CO[C@@H]1O[C@H](CO)[C@H](O)[C@H](O)[C@H]1O` (stereo partly drawn), for which the lowest concentration to inhibit growth (MIC) was 128 µg/mL (≈ 199 µM).

`CC/C=C\C/C=C\C/C=C\CCCCCCCC(=O)OC(COC(=O)CCCCCCC)CO[C@@H]1O[C@H](CO)[C@H](O)[C@H](O)[C@H]1O` (stereo partly drawn) returned an MIC of 128 µg/mL (≈ 200 µM).

The test system of a further test is Candida albicans. Description: Antifungal activity against Candida albicans by dilution method. The class given is functional.
Conditions: not given
Turning to `CCCCC/C=C\C/C=C\CCCCCCCC(=O)OC(COC(=O)CCCCCCC)CO[C@@H]1O[C@H](CO)[C@H](O)[C@H](O)[C@H]1O` (stereo partly drawn), the MIC is above 128 µg/mL.

In turn, `CC/C=C\C/C=C\C/C=C\CCCCCCCC(=O)OC(COC(=O)CCCCCCC)CO[C@@H]1O[C@H](CO)[C@H](O)[C@H](O)[C@H]1O` (stereo partly drawn) had an MIC above 128 µg/mL.

Another test deals with Staphylococcus aureus. Description: Antibacterial activity against Staphylococcus aureus SA87 isolate. Format: functional. To be noted: Staphylococcus aureus; read-out: MIC.
`CCCCC/C=C\C/C=C\CCCCCCCC(=O)OC(COC(=O)CCCCCCC)CO[C@@H]1O[C@H](CO)[C@H](O)[C@H](O)[C@H]1O` (stereo partly drawn): the MIC was found to be 128 µg/mL (≈ 199 µM).

As to `CC/C=C\C/C=C\C/C=C\CCCCCCCC(=O)OC(COC(=O)CCCCCCC)CO[C@@H]1O[C@H](CO)[C@H](O)[C@H](O)[C@H]1O` (stereo partly drawn), the MIC was 64 µg/mL (≈ 99.9 µM).

The next test concerns Kluyveromyces marxianus. Description: Antifungal activity against Candida pseudotropicalis by dilution method. Format: functional.
Conditions: not given
Take `CCCCC/C=C\C/C=C\CCCCCCCC(=O)OC(COC(=O)CCCCCCC)CO[C@@H]1O[C@H](CO)[C@H](O)[C@H](O)[C@H]1O` (stereo partly drawn): the MIC was above 128 µg/mL.

As for `CC/C=C\C/C=C\C/C=C\CCCCCCCC(=O)OC(COC(=O)CCCCCCC)CO[C@@H]1O[C@H](CO)[C@H](O)[C@H](O)[C@H]1O` (stereo partly drawn), the MIC was above 128 µg/mL.

In another test the test system is Staphylococcus aureus. Description: Antibacterial activity against Staphylococcus aureus ATCC 105487. Format: functional.
Conditions: not given
The compound `CCCCC/C=C\C/C=C\CCCCCCCC(=O)OC(COC(=O)CCCCCCC)CO[C@@H]1O[C@H](CO)[C@H](O)[C@H](O)[C@H]1O` (stereo partly drawn) registered an MIC above 128 µg/mL.

The compound `CC/C=C\C/C=C\C/C=C\CCCCCCCC(=O)OC(COC(=O)CCCCCCC)CO[C@@H]1O[C@H](CO)[C@H](O)[C@H](O)[C@H]1O` (stereo partly drawn) gave an MIC above 128 µg/mL.

For the next test, the system named is Staphylococcus aureus. Description: Antibacterial activity against Staphylococcus aureus ATCC 25923. Format: functional.
Conditions: not given
`CCCCC/C=C\C/C=C\CCCCCCCC(=O)OC(COC(=O)CCCCCCC)CO[C@@H]1O[C@H](CO)[C@H](O)[C@H](O)[C@H]1O` (stereo partly drawn) returned an MIC above 128 µg/mL.

In turn, `CC/C=C\C/C=C\C/C=C\CCCCCCCC(=O)OC(COC(=O)CCCCCCC)CO[C@@H]1O[C@H](CO)[C@H](O)[C@H](O)[C@H]1O` (stereo partly drawn) came in with an MIC above 128 µg/mL.

The test system of a further test is Mycobacterium tuberculosis. Description: Antibacterial activity against Mycobacterium tuberculosis H37Rv by dilution method. As to conditions: Mycobacterium tuberculosis, H37Rv; read-out: MIC. Format: functional.
Take `CCCCC/C=C\C/C=C\CCCCCCCC(=O)OC(COC(=O)CCCCCCC)CO[C@@H]1O[C@H](CO)[C@H](O)[C@H](O)[C@H]1O` (stereo partly drawn): the minimal inhibitory concentration (MIC) turned out to be 64 µg/mL (≈ 99.6 µM).

`CC/C=C\C/C=C\C/C=C\CCCCCCCC(=O)OC(COC(=O)CCCCCCC)CO[C@@H]1O[C@H](CO)[C@H](O)[C@H](O)[C@H]1O` (stereo partly drawn): the MIC came to 128 µg/mL (≈ 200 µM).

The test system of the next test is Enterococcus faecalis. Description: Antibacterial activity against Enterococcus faecalis ATCC 29212.
Conditions: not given
The class given is functional.
`CCCCC/C=C\C/C=C\CCCCCCCC(=O)OC(COC(=O)CCCCCCC)CO[C@@H]1O[C@H](CO)[C@H](O)[C@H](O)[C@H]1O` (stereo partly drawn) gave an MIC above 128 µg/mL.

`CC/C=C\C/C=C\C/C=C\CCCCCCCC(=O)OC(COC(=O)CCCCCCC)CO[C@@H]1O[C@H](CO)[C@H](O)[C@H](O)[C@H]1O` (stereo partly drawn) yielded an MIC above 128 µg/mL.

The test system of another test is Pseudomonas aeruginosa. Description: Antibacterial activity against Pseudomonas aeruginosa ATCC 27753. Format: functional.
Conditions: not given
The compound `CCCCC/C=C\C/C=C\CCCCCCCC(=O)OC(COC(=O)CCCCCCC)CO[C@@H]1O[C@H](CO)[C@H](O)[C@H](O)[C@H]1O` (stereo partly drawn) returned an MIC above 128 µg/mL.

For the compound `CC/C=C\C/C=C\C/C=C\CCCCCCCC(=O)OC(COC(=O)CCCCCCC)CO[C@@H]1O[C@H](CO)[C@H](O)[C@H](O)[C@H]1O` (stereo partly drawn), the MIC was above 128 µg/mL.

The test system of a further test is Bacillus subtilis. Description: Antibacterial activity against Bacillus subtilis ATCC 6633. The class given is functional. As to conditions: Bacillus subtilis, ATCC 6633; read-out: MIC.
In the case of `CCCCC/C=C\C/C=C\CCCCCCCC(=O)OC(COC(=O)CCCCCCC)CO[C@@H]1O[C@H](CO)[C@H](O)[C@H](O)[C@H]1O` (stereo partly drawn), the MIC is 128 µg/mL (≈ 199 µM).

Consider `CC/C=C\C/C=C\C/C=C\CCCCCCCC(=O)OC(COC(=O)CCCCCCC)CO[C@@H]1O[C@H](CO)[C@H](O)[C@H](O)[C@H]1O` (stereo partly drawn), for which the MIC came out at 128 µg/mL (≈ 200 µM).

For another test, the system named is Staphylococcus aureus. Description: Antibacterial activity against Staphylococcus aureus SA52 isolate. Format: functional.
Conditions: not given
In turn, `CCCCC/C=C\C/C=C\CCCCCCCC(=O)OC(COC(=O)CCCCCCC)CO[C@@H]1O[C@H](CO)[C@H](O)[C@H](O)[C@H]1O` (stereo partly drawn) yielded an MIC above 128 µg/mL.

With `CC/C=C\C/C=C\C/C=C\CCCCCCCC(=O)OC(COC(=O)CCCCCCC)CO[C@@H]1O[C@H](CO)[C@H](O)[C@H](O)[C@H]1O` (stereo partly drawn), the MIC was above 128 µg/mL.

A further test relates to Mycobacterium tuberculosis. Description: Antibacterial activity against Mycobacterium tuberculosis H160 by dilution method. Format: functional. To be noted: Mycobacterium tuberculosis, H160; read-out: MIC.
Regarding `CCCCC/C=C\C/C=C\CCCCCCCC(=O)OC(COC(=O)CCCCCCC)CO[C@@H]1O[C@H](CO)[C@H](O)[C@H](O)[C@H]1O` (stereo partly drawn), the MIC turned out to be 64 µg/mL (≈ 99.6 µM).

Turning to `CC/C=C\C/C=C\C/C=C\CCCCCCCC(=O)OC(COC(=O)CCCCCCC)CO[C@@H]1O[C@H](CO)[C@H](O)[C@H](O)[C@H]1O` (stereo partly drawn), the MIC was determined as 128 µg/mL (≈ 200 µM).

A further test has as its system Escherichia coli. Description: Antibacterial activity against Escherichia coli ATCC 25922. The class given is functional.
Conditions: not given
Consider `CCCCC/C=C\C/C=C\CCCCCCCC(=O)OC(COC(=O)CCCCCCC)CO[C@@H]1O[C@H](CO)[C@H](O)[C@H](O)[C@H]1O` (stereo partly drawn), for which the MIC was above 128 µg/mL.

In turn, `CC/C=C\C/C=C\C/C=C\CCCCCCCC(=O)OC(COC(=O)CCCCCCC)CO[C@@H]1O[C@H](CO)[C@H](O)[C@H](O)[C@H]1O` (stereo partly drawn) returned an MIC above 128 µg/mL.

A further test concerns Staphylococcus aureus. Description: Antibacterial activity against Staphylococcus aureus SA85 isolate. Format: functional.
Conditions: not given
The compound `CCCCC/C=C\C/C=C\CCCCCCCC(=O)OC(COC(=O)CCCCCCC)CO[C@@H]1O[C@H](CO)[C@H](O)[C@H](O)[C@H]1O` (stereo partly drawn) returned an MIC above 128 µg/mL.

The compound `CC/C=C\C/C=C\C/C=C\CCCCCCCC(=O)OC(COC(=O)CCCCCCC)CO[C@@H]1O[C@H](CO)[C@H](O)[C@H](O)[C@H]1O` (stereo partly drawn) showed an MIC above 128 µg/mL.
